Test results published in the METLIN SMRT retention time set (Domingo-Almenara et al. 2019).

Assay: gradient 5% acetonitrile 3 min, to 50% in 2 min, to 85% in 15 min, held 3 min, 100 µL/min
Details: column: Zorbax Extend-C18 2.1 x 50 mm; eluents: water / acetonitrile, 0.1% formic acid
Summary of the method: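 Retention times come from adduct peaks that were picked computationally and then checked by hand. The standards, pure and pooled in mixtures of ~100 molecules, were run on a Zorbax Extend-C18 column (2.1 × 50 mm, 1.8 μm) at 100 μL/min with water and acetonitrile, each with 0.1% formic acid. Detection was by quadrupole time-of-flight mass spectrometry in positive and negative ionization mode, with a dead volume of 40 μL and a dwell volume of 900 μL.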

| SMILES | RP-LC retention time |
| --- | --- |
| Cc1cc(C2CCCN2C(=O)c2cc(-c3ccccc3)no2)no1 (centres undefined) | 868 s |
| CC12C(=O)OC(=O)C1(C)C1CCC2O1 (centres undefined) | 813 s |
| O=C(NC1CCN(Cc2ccccc2)CC1)C1CCCN(c2ncc(-c3ccc(F)cc3)cn2)C1 (centres undefined) | 744 s |
| O=C(Oc1ccccc1)N1CCC(CNS(=O)(=O)c2ccc(F)c(Cl)c2)CC1 | 951 s |
| COc1ccccc1CNC1CCN(c2ccc(C(=O)NC3CC3)cn2)C1 (centres undefined) | 552 s |
| Cc1ccc(S(=O)(=O)N2CCCC(CCC(=O)NCc3ccccc3)C2)cc1 (centres undefined) | 960 s |
| CCN(CC)CCNC(=O)CCc1c(-c2ccc(Cl)cc2)nc2ccccn12 | 558 s |
| CCn1cnc(S(=O)(=O)N2CCC(C(=O)NCc3cccs3)CC2)c1 | 658 s |
| Cc1ccc(F)cc1S(=O)(=O)N1CCN(c2ccc(N3CCOCC3)nn2)CC1 | 592 s |
| CCN1C(=O)c2cccc3c(NC(=O)Nc4cccc(Cl)c4)ccc1c23 | 889 s |
| C=C1CC(COc2cc(=O)oc3ccccc23)(c2ccccc2)OC1=O (centres undefined) | 885 s |
| Cn1c(=O)c(NCCc2c[nH]c3ccccc23)nc2ccncc21 | 619 s |
| CN(C)CC1CCN(C(=O)NC2CCCCC2)CC1 | 570 s |
| O=C(c1ccoc1)N1CCCn2cc(-c3ccccc3F)nc21 | 649 s |
| O=C(CSc1nncc2ccccc12)NCCc1ccccc1 | 687 s |
| CCCN1C(=O)c2cc(S(=O)(=O)NCc3ccccc3)ccc2Oc2cccnc21 | 1050 s |
| CCOc1ccc(S(=O)(=O)Nc2ccc(-c3cn4ccc(C)nc4n3)cc2)c(OCC)c1 | 691 s |
| CN(CCc1ccc(Cl)c(Cl)c1)CC(O)COc1ccc(NS(C)(=O)=O)cc1 (centres undefined) | 715 s |
| Cc1ccc(C)c(-c2cc3c(=O)n(Cc4noc(-c5ccccc5)n4)ccn3n2)c1 | 860 s |
| Cc1ccc(-c2nnc(N3CCC(C(=O)NC4CCCCCC4)CC3)o2)cc1 | 949 s |
| O=C(CSc1cc(N2CCN(c3ccccc3F)CC2)ncn1)NC1CCCCC1 | 1050 s |
| Cc1ccc(Nc2c(-c3ccc(O)cc3)nc3ccc(Cl)cn23)cc1 | 696 s |
| Cc1cccc(CC(=O)N2C[C@@H]3C[C@H](NC(=O)c4ccccc4)[C@H]2C3)c1 | 794 s |

| SMILES | RP-LC retention time |
| --- | --- |
| CCOc1ccc(-c2noc(CN3C(=O)COc4cc(C(C)(C)C)ccc43)n2)cc1 | 1260 s |
| CS(=O)(=O)Nc1cccc(OCc2nnc(-c3ccccc3)o2)c1 | 798 s |
| CC(=O)Nc1ccc(-n2c(-c3ccc(Cl)cc3)cn3c4c(=O)n(C)c(=O)n(C)c4nc23)cc1 | 766 s |
| O=C(N[C@@H]1CN(c2ncccn2)C[C@H]1CO)c1ccc2ccccc2n1 | 654 s |
| O=S(=O)(c1ccccc1)N1CCC(c2noc(-c3ccc(Cl)cc3)n2)CC1 | 1170 s |
| O=C(Nc1ccc(Cl)cc1)c1cnc(-c2ccc(F)cc2)nc1-c1ccncc1 | 986 s |
| O=C(Cc1cccc(F)c1)NC1CCN(c2cc(-c3ccc(F)cc3)[nH]n2)C1 (centres undefined) | 716 s |
| CC(C)(C)c1noc(-c2ccc(-n3cnc(C(=O)N4CCOCC4)c3)nc2)n1 | 793 s |
| Cc1ccc(C)c(N2CCN(S(=O)(=O)c3ccc(-c4nnc(C5CC5)o4)o3)CC2)c1 | 1130 s |
| Cc1cc(C(=O)Nc2ccc(-c3nc4ccccc4o3)cc2)c(C)o1 | 1020 s |
| O=C(c1cccc(Br)c1)N1CCN(Cc2noc3ccccc23)CC1 | 756 s |
| CC(C)CNC(=O)C1CCN(C(=O)c2ncn3c2COC(c2ccccc2)C3)CC1 (centres undefined) | 702 s |
| COCCn1cc(CCNC(=O)Nc2cc(C)ccc2C)c2cccnc21 | 752 s |
| COCC(C)(O)CNC(=O)C(=O)NCCc1ccccc1 (centres undefined) | 660 s |
| O=C(CC1CCCC1)N1CCCCC1c1nncn1Cc1ccccc1 (centres undefined) | 890 s |
| Cc1noc(-c2cccn2C)n1 | 744 s |
| Cc1cccnc1NC(=O)C1CCN(S(=O)(=O)c2cn(C(C)C)cn2)CC1 | 591 s |
| CC(NC(=O)C(=O)N1CCOCC1)C(c1cccs1)N1CCN(Cc2ccccc2)CC1 (centres undefined) | 600 s |
| CC1CCN(c2cc(-n3cnc(C(=O)NCC4CCCO4)c3)ncn2)CC1 (centres undefined) | 819 s |
| CN(Cc1ccccc1)C(=O)c1cn(-c2cc(-c3nc(C(C)(C)C)no3)ccn2)cn1 | 1050 s |
| O=C(CSc1cn(CCNC(=O)c2ccccc2)c2ccccc12)Nc1ccccc1F | 863 s |
| Clc1ccc(OCc2nn3c(CSc4ccccc4)nnc3s2)cc1 | 1040 s |

Next, values leading:

| RP-LC retention time | SMILES |
| --- | --- |
| 631 s | COc1ccc(NC(=O)Cn2ccnc2-c2ccnc(N3CCOCC3)c2)cc1Cl |
| 900 s | O=C(c1nc(Cn2nc(-c3ccc(F)cc3)ccc2=O)no1)N1CCCC1 |
| 722 s | COCc1c(C(=O)O)nnn1-c1ccc(C)cc1F |
| 699 s | COc1ccc(CNC(=O)N2CCC(OC3CCN(S(C)(=O)=O)CC3)CC2)cc1 |
| 554 s | O=C(CN1CCCc2nc(C3CC3)ncc2C1=O)NCCN1CCOCC1 |
| 1180 s | CNC(=O)c1c(NC(=O)c2ccc(Cl)cc2)sc2c1CCC2 |
| 854 s | CCOc1cc(=O)n2c(c1C(=O)Nc1cc(Cl)ccc1OC)CCCC2 |
| 688 s | Cc1ccc(CNC(=O)[C@@]23CCCC[C@H]2N(C)C(=O)CC3)cc1 |
| 791 s | COc1ccc(NC(=O)Cn2c(=O)n(-c3ccccc3)c(=O)c3c2cc(C)n3C)c(OC)c1 |
| 1050 s | CCn1cc2c3c(cccc31)CN(C(=O)Nc1cccc(C)c1)CC2 |
| 853 s | CCN1c2cc(C(=O)NC3CCCCC3)ccc2C(=O)N2CCCCC21 (centres undefined) |
| 760 s | O=C(CN1C(=O)COc2ccc(C(=O)N3CCc4ccccc43)cc21)N1CCCC1 |
| 602 s | O=C(NCCN1CCOCC1)c1ccc2c(c1)CCCN2C(=O)c1ccccc1F |
| 1020 s | CCS(=O)(=O)c1nc2ccc(NS(=O)(=O)c3c(C)c(C)cc(C)c3C)cc2s1 |
| 822 s | Cc1csc(-c2ccc(N3CCN(C(=O)c4cccc(F)c4)CC3)nc2)n1 |
| 780 s | CCn1cc(C)c(C(=O)O)c1CC(=O)N1CCc2ccccc2C1 |
| 953 s | O=C(Nc1cccc(C(=O)N2CCN(c3cccc(Cl)c3)CC2)c1)C1=CSCCO1 |
| 959 s | CCc1noc(NC(C)=O)c1-c1ccc(C)c(S(=O)(=O)NC2CCCCCCC2)c1 |
| 718 s | Cc1noc([C@@H]2CC(F)(F)CN2C(=O)CCc2c(C)noc2C)n1 |
| 543 s | Cc1oc(-c2[nH]ncc2C(=O)N(C)C)cc1S(=O)(=O)NCCN1CCOCC1 |
| 812 s | CC1Oc2ccc(S(=O)(=O)N3CCC(C(=O)NCc4ccc(F)cc4)CC3)cc2NC1=O (centres undefined) |
| 788 s | CC(=O)N1CCc2ccccc2C1C(=O)NCc1ccccc1C (centres undefined) |

| RP-LC retention time | SMILES |
| --- | --- |
| 983 s | Cc1ccc(NC(=O)C2CCCN(S(=O)(=O)c3cc(-c4noc(C)n4)cs3)C2)c(C)c1 (centres undefined) |
| 906 s | O=C(Cn1cnc2c(sc3nc(-c4ccccc4)ccc32)c1=O)NC1CCCC1 |
| 1080 s | CCOC(=O)c1ccccc1NC(=O)CSc1nnc2c3cc(-c4ccc(C)cc4)nn3ccn12 |
| 682 s | Cc1ccc(-c2nccn3cc(C(=O)N4CCN(C5CCCCC5)CC4)nc23)cc1 |
| 638 s | CCOc1cc2c(cc1OCC)C1C(C(=O)N3CCN(CC)CC3)c3ccccc3C(=O)N1CC2 (centres undefined) |
| 765 s | CC1(C(=O)NCc2ccc(F)cc2)Cn2cnc(C(=O)NC3CCCCC3)c2C(=O)N1C1CC1 (centres undefined) |
| 620 s | CC1CCCN(CCCNC(=O)c2nc(CCS(=O)(=O)c3ccc(F)cc3)no2)C1 (centres undefined) |
| 664 s | O=C(CSc1ccc(N2CCCC(C(=O)NC3CC3)C2)nn1)Nc1cccc(Br)c1 (centres undefined) |
| 853 s | CCOC(=O)c1sc(NC(=O)Cn2nc3c(cc2=O)CCCCC3)nc1C |
| 788 s | COc1ccc2[nH]cc(CCNC(=O)CCc3c(C)nc4c(c3C)c(=O)n(C)c(=O)n4C)c2c1 |
| 611 s | Cc1cc(C)c(S(=O)(=O)Nc2ccc3nc(N4CCN(C)CC4)cc(C(=O)O)c3c2)cc1C |
| 645 s | O=C(NCCn1cnc2cc(C(=O)N3CCCC3)ccc21)Nc1ccc2c(c1)CCC2 |
| 968 s | COCCc1noc(C2Cc3ccccc3N2C(=O)Nc2cc(C)cc(C)c2)n1 (centres undefined) |
| 749 s | COc1ccc(C(=O)N(Cc2cc(OC)c(OC)c(OC)c2)C2CCS(=O)(=O)C2)cc1 (centres undefined) |
| 908 s | COc1ccc(N2CCN(c3cc(SCC(=O)NCc4ccc(Cl)cc4)ncn3)CC2)cc1 |
| 733 s | O=C1NCCCCCCN(C(=O)c2ccsc2)[C@H]2CCC[C@@H]12 |
| 677 s | CNC(=O)c1nsc(C(=O)OC)c1N |
| 560 s | CCC(C(=O)NCCCN1CCN(C)CC1)n1c2ccccc2c2cnn(C)c(=O)c21 (centres undefined) |
| 1050 s | O=C(NCCc1ccccc1)N1CCCC1c1nc(-c2cccc(Cl)c2)no1 (centres undefined) |
| 713 s | Cc1cc(C)cc(NC(=O)Cn2cnc3nc(N4CCC(C(=O)NC5CC5)CC4)sc3c2=O)c1 |
| 738 s | CCN1C(=O)C2CC3(CCN(C(=O)C4CCCCC4)CC3)CN2C1=O (centres undefined) |
| 663 s | CCCCC(Sc1nc(=O)[nH]c(C)c1C(=O)OCC)C(=O)O (centres undefined) |
